Test results taken from PMC11249239 (PLOS ONE, 2024).
“And” between values parts separate entries of the source, which are not always exact repeats. Identical values can stand only once.

How the values were obtained:
[1] = target: T1, HDAC1 (Homo sapiens, UniProt Q13547); assay: In vitro HDAC isoform inhibition, purified recombinant HDAC1; type: biochemical; details: purified recombinant protein; ± margin of error of 95% confidence interval; read-out: IC50 HDAC inhibition activity in vitro, HDAC 1
T1 construct: purchased PBS Bioscience [sic] (San Diego, CA); host or cells: Sf9 insect cells / baculovirus
T1 sequence (Q13547 whole entry, canonical isoform): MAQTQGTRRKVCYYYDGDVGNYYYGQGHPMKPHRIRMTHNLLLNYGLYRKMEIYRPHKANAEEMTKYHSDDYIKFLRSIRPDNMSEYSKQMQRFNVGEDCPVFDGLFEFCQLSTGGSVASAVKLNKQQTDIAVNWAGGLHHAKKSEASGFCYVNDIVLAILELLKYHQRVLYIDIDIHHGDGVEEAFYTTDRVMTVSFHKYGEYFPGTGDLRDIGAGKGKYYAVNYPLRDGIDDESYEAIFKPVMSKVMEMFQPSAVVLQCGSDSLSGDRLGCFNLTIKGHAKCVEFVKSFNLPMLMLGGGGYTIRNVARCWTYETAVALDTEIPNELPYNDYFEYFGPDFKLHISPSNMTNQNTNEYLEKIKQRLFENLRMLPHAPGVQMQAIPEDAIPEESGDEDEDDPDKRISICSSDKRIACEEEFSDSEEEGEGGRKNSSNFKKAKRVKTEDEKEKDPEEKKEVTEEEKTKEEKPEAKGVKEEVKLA
Description: (§1) In vitro HDAC enzyme inhibition assays utilized HeLa cell extract for pan-HDACs with the substrate Fluor-Lys following the manufacturer’s protocol (BIOMOL/ENZO, Plymouth Meeting, PA). For isoform assays, purified HDAC1, HDAC3, and HDAC6 recombinant proteins produced by expressing epitope-tagged full-length proteins in the sf9 baculovirus expression vector system were purchased from PBS Bioscience (San Diego, CA). […] The reaction commenced with the addition of HDAC substrate at room temperature and proceeded for 30 minutes. Termination of the reaction was achieved by adding 50 μL of Fluor de Lys (TM) Assay Developer. The fluorophore was excited at 360 nm and emitted light at 460 nm. Relative fluorescence was measured using a FlexStation II plate reader (Molecular Devices, Sunnyvale, CA).

[2] = target: T2, HDAC3 (Homo sapiens, UniProt O15379); assay: In vitro HDAC isoform inhibition, purified recombinant HDAC3; type: biochemical; details: purified recombinant protein; ± margin of error of 95% confidence interval; read-out: IC50 HDAC inhibition activity in vitro, HDAC 3
T2 construct: purchased PBS Bioscience [sic] (San Diego, CA); host or cells: Sf9 insect cells / baculovirus
T2 sequence (O15379 whole entry, canonical isoform): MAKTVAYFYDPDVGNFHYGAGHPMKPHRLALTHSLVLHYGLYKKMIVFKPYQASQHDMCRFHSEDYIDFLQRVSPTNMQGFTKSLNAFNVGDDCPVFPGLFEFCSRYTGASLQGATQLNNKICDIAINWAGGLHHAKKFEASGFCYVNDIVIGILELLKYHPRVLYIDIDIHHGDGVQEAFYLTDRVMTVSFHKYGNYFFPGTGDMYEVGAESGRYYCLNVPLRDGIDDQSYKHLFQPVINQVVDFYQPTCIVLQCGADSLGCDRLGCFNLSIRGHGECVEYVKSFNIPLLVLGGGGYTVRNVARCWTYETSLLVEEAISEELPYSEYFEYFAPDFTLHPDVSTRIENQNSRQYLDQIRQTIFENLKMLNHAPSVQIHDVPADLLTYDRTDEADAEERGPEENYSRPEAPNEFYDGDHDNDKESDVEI
T2 sequence (Q9Y618 395-489 partner limits assumed): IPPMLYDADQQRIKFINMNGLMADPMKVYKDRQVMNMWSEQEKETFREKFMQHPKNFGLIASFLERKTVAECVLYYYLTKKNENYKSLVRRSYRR
Description: as §1

[3] = target: HDAC5 (Homo sapiens, UniProt Q9UQL6); assay: HDAC5 activity inhibition (data not shown); type: biochemical; details: read-out: IC50 class IIa HDAC5 inhibition
Sequence of HDAC5 (Q9UQL6 whole entry, species assumed): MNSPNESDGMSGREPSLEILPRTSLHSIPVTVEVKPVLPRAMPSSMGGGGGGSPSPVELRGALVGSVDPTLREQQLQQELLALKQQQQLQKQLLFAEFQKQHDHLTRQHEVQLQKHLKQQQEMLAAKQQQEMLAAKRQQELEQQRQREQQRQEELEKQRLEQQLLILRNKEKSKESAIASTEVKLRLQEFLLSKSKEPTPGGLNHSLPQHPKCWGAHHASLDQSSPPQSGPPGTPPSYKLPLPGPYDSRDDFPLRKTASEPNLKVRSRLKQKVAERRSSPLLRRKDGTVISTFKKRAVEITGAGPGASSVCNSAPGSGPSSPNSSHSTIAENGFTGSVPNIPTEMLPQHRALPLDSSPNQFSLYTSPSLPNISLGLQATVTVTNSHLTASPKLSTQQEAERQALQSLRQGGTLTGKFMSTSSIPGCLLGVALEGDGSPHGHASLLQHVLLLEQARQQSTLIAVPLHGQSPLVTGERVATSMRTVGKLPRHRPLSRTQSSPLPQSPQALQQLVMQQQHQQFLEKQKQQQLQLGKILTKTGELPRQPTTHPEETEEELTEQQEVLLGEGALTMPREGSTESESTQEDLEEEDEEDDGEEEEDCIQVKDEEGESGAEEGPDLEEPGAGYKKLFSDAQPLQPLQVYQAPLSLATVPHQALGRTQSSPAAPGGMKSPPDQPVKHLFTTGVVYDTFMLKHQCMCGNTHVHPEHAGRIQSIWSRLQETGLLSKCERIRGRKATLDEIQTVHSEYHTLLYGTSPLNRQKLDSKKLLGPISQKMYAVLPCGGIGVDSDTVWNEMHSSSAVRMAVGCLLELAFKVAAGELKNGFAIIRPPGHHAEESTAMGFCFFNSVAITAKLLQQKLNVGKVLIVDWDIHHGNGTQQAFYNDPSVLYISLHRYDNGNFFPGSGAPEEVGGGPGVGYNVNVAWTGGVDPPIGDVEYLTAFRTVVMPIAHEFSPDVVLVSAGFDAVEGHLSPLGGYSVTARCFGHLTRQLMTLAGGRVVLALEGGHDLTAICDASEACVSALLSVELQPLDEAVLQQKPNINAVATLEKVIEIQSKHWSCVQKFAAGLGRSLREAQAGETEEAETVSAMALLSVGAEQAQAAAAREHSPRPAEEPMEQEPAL

[4] = system: MCF7 cells; assay: Cell cycle analysis by flow cytometry (FACS); type: cell-based
Experimental: Cells were treated with SP-1-303 for 24, 48, and 72 hours. DMSO and ionizing radiation (IR) were used on controls. The cell cycle distributions were analyzed by flow cytometry. The cells were harvested at the indicated times, washed twice with cold phosphate-buffered saline (PBS), and fixed with citrate/DMSO buffer for overnight. The cells were resuspended in PBS containing 40 μg/ml of DNase-free RNase A and 50 μg/ml of propidium iodide, and the cell cycle distributions were measured in a fluorescence-activated cell sorter (FACSort) from Becton Dickinson. DNA content was quantified using ModFit LT 3.0 software (Verity Software House, Inc).

[5] = system: acetylated histone 3 lysine 9 (H3K9ac); assay: Western blot, acetylation of histone H3 lysine 9; type: cell-based; details: MCF7 and MDA-MB-231; 1 μM; within 0.5 h
Description: (§2) Following treatment of cells with SP-1-303 over a time course, total or nuclear proteins were extracted and analyzed on 4–20% trisglycine gradient sodium dodecyl sulfate polyacrylamide gel electrophoresis (SDS-PAGE). Subsequently, membranes were probed with antibodies targeting specific proteins in accordance with the manufacturers’ protocols, including ATM (ab78), p-BRCA1 (ab90528), BRCA1 (ab191042), p-p53/S15 (ab1431), acetylated H3K9 (ab12179) from Abcam, as well as p-ATM (# 5883) and p53 (#9282) from Cell Signaling, α-tubulin (T6793) and β-actin (A3854) from Sigma-Aldrich, ER-α (cat# MA1-80216, Invitrogen) and HDAC2 (BML-SA402. Enzo). Protein images were captured using ECL Prime Western Blotting Detection Reagents (Cat#. RPN2232, Amersham) and the Amersham Imager 600. For immunofluorescent analysis, formalin fixed cells were permeabilized with 0.1% Triton X-100 in TBS for 10 minutes at room temperature, followed by blocking with 1% Blocker BSA for 15 minutes at room temperature. Cells were then probed with a phospho-ATM monoclonal antibody (MA5-15185) and DyLight 488 goat anti-mouse IgG secondary antibody at room temperature. Actin was stained with DyLight 554 phalloidin, while nuclei were stained with 4’,6-diamidino-2-phenylindole dye (DAPI). Images were captured using a Nikon Epi Fluorescent microscopy.

[6] = system: p-ATM/S1981; assay: Western blot, phosphorylation of ATM; type: cell-based; details: MCF7 and MDA-MB-231; 1 μM; within 0.5 h
Description: as §2

[7] = system: ER-α; assay: Western blot of nuclear extracts, ER-α expression; type: cell-based; details: MCF7; 1 μM; from 2h to 6h
Description: as §2

[8] = system: p53; assay: Western blot of nuclear extracts, p53 expression; type: cell-based; details: 1 μM, time course
Description: as §2

[9] = system: phosphorylated BRCA1; assay: Western blot, phosphorylated BRCA1; type: cell-based; details: 1 μM
Description: as §2

[10] = system: phosphorylated p53; assay: Western blot, phosphorylated p53; type: cell-based; details: 1 μM
Description: as §2

For `Cc1[nH]c2ccccc2c1C1=C(c2c(C)[nH]c3ccccc23)C(=O)N(CCCCCCC(=O)NO)C1=O` [SP-1-303], which IC50 [1] is on record?
The IC50 was 12 ± 1 nM.

And the IC50 [2]?
The IC50 was 14 ± 2 nM.

What about the IC50 [3] of the same compound?
The IC50 was over 20000 nM.

What about the “% Cells in G1” value ([4]; 24 HR) of the same compound?
Its value is 89.44%.

And the “% Cells in G2/M” value ([4]; 24 HR)?
The value was 6.19%.

What about the “% Cells in S” value ([4]; 24 HR) of the same compound?
The value was 4.37%.

What about the “% Cells in G2/M” value ([4]; 24 HR + IR) of the same compound?
Its value is 5.12%.

What about the “% Cells in S” value ([4]; 24 HR + IR) of the same compound?
The value was 3.91%.

And the “% Cells in G1” value ([4]; 24 HR + IR (combination with radiation))?
Its value is 91% and 90.97%.

What about the “% Cells in G1” value ([4]; 48 HR) of the same compound?
The value was 71.02%.

What about the “% Cells in G2/M” value ([4]; 48 HR) of the same compound?
The value was 6.75%.

What about the “% Cells in S” value ([4]; 48 HR) of the same compound?
Its value is 22.24%.

And the “% Cells in G1” value ([4]; 72 HR)?
Its value is 81.35%.

And the “% Cells in G2/M” value ([4]; 72 HR)?
Its value is 6.21%.

What about the “% Cells in S” value ([4]; 72 HR) of the same compound?
Its value is 12.45%.

And the “acetylation of histone H3 lysine 9 (H3K9)” value [5]?
The value was “significantly enhanced”.

And the “phosphorylation of ATM/S1981” value [6]?
Its value is “significantly enhanced”.

What about the ER-α expression [7] of the same compound?
Its ER-α expression is “gradual reduction”.

What about the “expression of p53” value ([8]; MCF7) of the same compound?
Its value is “gradual increase”.

And the “expression of p53” value ([8]; MDA-MB-231)?
Its value is “no significant change”.

And the “phosphorylated BRCA1” value ([9]; MCF7, within 1h to 2h)?
Its value is “induction”.

What about the “phosphorylated BRCA1” value ([9]; MDA-MB-231) of the same compound?
The value was “without significant alteration”.

And the “phosphorylated p53” value ([10]; MCF7, within 1h to 2h)?
Its value is “induction”.

What about the “phosphorylated p53” value ([10]; MDA-MB-231) of the same compound?
Its value is “no phosphorylated p53”.
